The source of these data is patent publication US11919902B2, “Aryl-bipyridine amine derivatives as phosphatidylinositol phosphate kinase inhibitors” (HiberCell, Inc., priority 2017, dated 2024).

The target in experiment [1] is T1, PIP4K2A (full length protein, SignalChem) (Homo sapiens, UniProt P48426).
T1 construct: 4 nM PIP4K2A (full length protein, SignalChem); purchased SignalChem
T1 sequence (P48426 1-406): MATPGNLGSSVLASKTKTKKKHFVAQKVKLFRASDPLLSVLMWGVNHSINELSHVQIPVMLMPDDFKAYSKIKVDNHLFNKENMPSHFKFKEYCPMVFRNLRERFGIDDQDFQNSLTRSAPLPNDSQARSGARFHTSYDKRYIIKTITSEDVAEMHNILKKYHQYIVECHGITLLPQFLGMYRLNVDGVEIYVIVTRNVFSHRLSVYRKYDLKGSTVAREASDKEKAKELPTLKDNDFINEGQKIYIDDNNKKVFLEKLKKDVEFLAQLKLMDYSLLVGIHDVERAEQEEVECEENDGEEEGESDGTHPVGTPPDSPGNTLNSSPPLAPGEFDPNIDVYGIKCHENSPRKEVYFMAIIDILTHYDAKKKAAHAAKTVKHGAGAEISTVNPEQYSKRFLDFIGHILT
Briefly: Kinase Assay PIP4K2 A (Sprint); ADP-Glo biochemical assay. The following applies: Table 2; compounds listed under IC50 range headings. The method in brief: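 ADP-Glo luminescence detected ADP after a 1 h RT reaction started with 60 μM ATP solution. Before that, full-length PIP4K2A (4 nM in mix) with 100 μM PI(5)P diC8 was pre-incubated 15 min with compounds in MOPS buffer pH 7.2, 25 mM MgCl2, 0.005% Tween 20. IC50 derived from % inhibition relative to DMSO over 10 three-fold concentrations.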

The target in another experiment is T2, GST tagged PIP4KtypeIIA (Homo sapiens, UniProt P48426).
T2 construct: made in house; host or cells: E. coli
T2 sequence (P48426 1-406): T1 sequence (P48426 1-406)
Briefly: ADP-glo kinase assay PIP4K 2A (PIP4KtypeIIA inhibition assay). The note with it: Table 3; compounds listed under IC50 range headings; 10 uM ATP, 0.5 nM PIP4KIIA. It is filed as biochemical. The method in brief:
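Read-out was ADP-Glo luminescence converted to μM ADP, with IC50 plotted as % of no-inhibitor activity against log concentration. Reactions contained 10 μM ATP, 80 μM PI5P with DOPE carrier, and 0.5 nM GST-tagged PIP4KIIA (E. coli-expressed) in pH 7.3 HEPES/MgCl2 buffer with 5% DMSO. Enzyme and compound (≤4.8 μM) were preincubated 1 h at 27 °C before the 1 h reaction.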
On the technique in general: In ADP-Glo the light output rises with the ADP produced.

For another experiment, the target named is T3, GST tagged PIP4KtypeIIB (Homo sapiens, UniProt P78356).
T3 construct: made in house; host or cells: E. coli
T3 sequence (P78356 1-416): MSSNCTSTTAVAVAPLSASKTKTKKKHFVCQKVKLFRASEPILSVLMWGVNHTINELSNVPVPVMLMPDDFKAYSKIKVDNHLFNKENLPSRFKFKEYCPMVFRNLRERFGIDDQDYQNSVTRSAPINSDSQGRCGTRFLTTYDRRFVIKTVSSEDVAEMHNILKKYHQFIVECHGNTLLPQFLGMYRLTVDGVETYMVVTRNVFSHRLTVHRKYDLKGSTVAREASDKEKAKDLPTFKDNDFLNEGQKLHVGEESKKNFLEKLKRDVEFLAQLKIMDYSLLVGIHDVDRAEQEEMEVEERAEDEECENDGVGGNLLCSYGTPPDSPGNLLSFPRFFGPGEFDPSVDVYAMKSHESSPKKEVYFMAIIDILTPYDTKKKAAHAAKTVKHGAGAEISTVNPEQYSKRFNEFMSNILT
As to the kind of experiment: Trans-FI P kinase assay PIP4K2B (PIP4KtypeIIB inhibition assay). It is filed as biochemical. The following applies: Table 4; compounds listed under IC50 range headings; 100 uM GTP, 5 nM PIP4KIIB; read-out: Trans-FI P kinase assays: PIP4K2B IC50. The procedure, abridged: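 Transcreener FI fluorescence, converted to GDP by calibration, tracked product from 5 nM E. coli-expressed GST-PIP4KIIB acting on 80 uM PI5P (DOPE carrier) with 100 uM GTP. Compound (top 4.8 uM final, 5% DMSO) was preincubated 1 h at 27 C before the 2 h reaction; IC50 fitted from residual activity.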

Molecules are shown by their SMILES. Where only a bound is given, the exact number is not on record here.

As usually defined, the IC50 is the concentration at which inhibition is half-maximal. `Cc1cc(N2CCCC2=O)ccc1-c1cncc(-c2ccnc3[nH]c(C(=O)N(C)C)cc23)c1` [Example 169, N,N-dimethyl-4-(5-(2-methyl-4-(2-oxopyrrolidin-1-yl)phenyl)pyridin-3-yl)-1H-pyrrolo[2,3-b]pyridine-2-carboxamide]: the IC50 in experiment [1] was 100 to 1000 nM; at GST tagged PIP4KtypeIIA it was 1000 to 2500 nM; on GST tagged PIP4KtypeIIB, 100 to 1000 nM.

Regarding `CNC(=O)c1cc2c(-c3cncc(-c4ccc(N5CCCC5=O)cc4C)c3)ccnc2o1` [Example 170, N-methyl-4-(5-(2-methyl-4-(2-oxopyrrolidin-1-yl)phenyl)pyridin-3-yl)furo[2,3-b]pyridine-2-carboxamide], the IC50 was 5 to 100 nM in experiment [1], 100 to 1000 nM on GST tagged PIP4KtypeIIA and 100 to 1000 nM at GST tagged PIP4KtypeIIB.

Turning to `COC(=O)c1cc2c(-c3cncc(-c4ccc(N5CCCC5=O)cc4C)c3)ccnc2[nH]1` [Example 171, methyl 4-(5-(2-methyl-4-(2-oxopyrrolidin-1-yl)phenyl)pyridin-3-yl)-1H-pyrrolo[2,3-b]pyridine-2-carboxylate], the IC50 in experiment [1] lay within 5 to 100 nM; against GST tagged PIP4KtypeIIA, 10 to 100 nM; on GST tagged PIP4KtypeIIB, 10 to 100 nM.

As for `Cc1c(-c2ccc(N3CCCC3=O)cc2)cncc1-c1cn(C)c2ncc(C(C)(C)O)cc12` [Example 172, 1-(4-(5-(5-(2-hydroxypropan-2-yl)-1-methyl-1H-pyrrolo[2,3-b]pyridin-3-yl)-4-methylpyridin-3-yl)phenyl)pyrrolidin-2-one], the IC50 is 100 to 1000 nM in experiment [1], 1000 to 2500 nM against GST tagged PIP4KtypeIIA and 1000 to 2500 nM at GST tagged PIP4KtypeIIB.

With `Cc1c(-c2ccc(N3CCCC3=O)cc2)cncc1-c1ccnc2[nH]c(C(=O)N(C)C)cc12` [Example 173, N,N-dimethyl-4-(4-methyl-5-(4-(2-oxopyrrolidin-1-yl)phenyl)pyridin-3-yl)-1H-pyrrolo[2,3-b]pyridine-2-carboxamide], the IC50 fell in the range of 5 to 100 nM in experiment [1], 100 to 1000 nM at GST tagged PIP4KtypeIIA and 100 to 1000 nM at GST tagged PIP4KtypeIIB.

Take `CNC(=O)c1cc2c(-c3cncc(-c4ccc(N5CCCC5=O)cc4)c3C)ccnc2o1` [Example 174, N-methyl-4-(4-methyl-5-(4-(2-oxopyrrolidin-1-yl)phenyl)pyridin-3-yl)furo[2,3-b]pyridine-2-carboxamide]: the IC50 in experiment [1] lay in the range of 5 to 100 nM; on GST tagged PIP4KtypeIIA, 100 to 1000 nM; at GST tagged PIP4KtypeIIB, 100 to 1000 nM.

`COC(=O)c1cc2c(-c3cncc(-c4ccc(N5CCCC5=O)cc4)c3C)ccnc2[nH]1` [Example 175, methyl 4-(4-methyl-5-(4-(2-oxopyrrolidin-1-yl)phenyl)pyridin-3-yl)-1H-pyrrolo[2,3-b]pyridine-2-carboxylate]: the 50% inhibitory concentration (IC50) in experiment [1] was in the range of 5 to 100 nM; on GST tagged PIP4KtypeIIA it was 10 to 100 nM; at GST tagged PIP4KtypeIIB, 10 to 100 nM.

For `Cn1cc(-c2cncnc2)c2cc(-c3cncc(-c4ccc(N5CCCC5=O)cc4)c3)cnc21` [Example 176, 1-(4-(5-(1-methyl-3-(pyrimidin-5-yl)-1H-pyrrolo[2,3-b]pyridin-5-yl)pyridin-3-yl)phenyl)pyrrolidin-2-one], the results for the IC50 (in experiment [1]; at GST tagged PIP4KtypeIIA; on GST tagged PIP4KtypeIIB) were 5 to 100 nM, 100 to 1000 nM and 1000 to 2500 nM, respectively.

For `O=C1CCCN1c1ccc(-c2cncc(-n3cnc4ccccc43)c2)cc1` [Example 177, 1-(4-(5-(1H-benzo[d]imidazol-1-yl)pyridin-3-yl)phenyl)pyrrolidin-2-one], the IC50 (in experiment [1]; against GST tagged PIP4KtypeIIA; on GST tagged PIP4KtypeIIB) was 100 to 1000 nM each time.

As for `CN(CC1CCNCC1)C(=O)c1ccc(-c2cncc(-c3ccncc3)c2)cc1` [Example 179, 4-([3,4′-bipyridin]-5-yl)-N-methyl-N-(piperidin-4-ylmethyl)benzamide], the 50% inhibitory concentration (IC50) in experiment [1] was below 5000 nM; at GST tagged PIP4KtypeIIA, above 5000 nM; on GST tagged PIP4KtypeIIB, above 5000 nM.

As for `CN(CC1CCCNC1)C(=O)c1ccc(-c2cncc(-c3ccncc3)c2)cc1` (stereo not drawn) [Example 180, 4-([3,4′-bipyridin]-5-yl)-N-methyl-N-(piperidin-3-ylmethyl)benzamide], the figures for the half-inhibitory concentration (IC50) (in experiment [1]; against GST tagged PIP4KtypeIIA; on GST tagged PIP4KtypeIIB) were below 5000 nM, above 5000 nM and above 5000 nM, respectively.

On to `CN(C[C@H]1CC[C@H](N)CC1)C(=O)c1ccc(-c2cncc(-c3ccncc3)c2)cc1` [Example 181, 4-([3,4′-bipyridin]-5-yl)-N-(((1r,4r)-4-aminocyclohexyl)methyl)-N-methylbenzamide], for which the IC50 in experiment [1] is below 5000 nM; against GST tagged PIP4KtypeIIA it was above 5000 nM; on GST tagged PIP4KtypeIIB it was above 5000 nM.

With `CN(C)C(=O)c1ccc(-c2cc(-c3ccnc(CNC(=O)c4ccc(NC(=O)OC(C)(C)C)cc4)c3)cnc2N)nc1` [Example 187, tert-butyl(4-(((2′-amino-5-(dimethylcarbamoyl)-[2,3′:5′,4″-terpyridin]-2″-yl)methyl)carbamoyl)phenyl)carbamate], the half-maximal inhibitory concentration (IC50) in experiment [1] is 2500 to 5000 nM; on GST tagged PIP4KtypeIIA it was above 5000 nM; on GST tagged PIP4KtypeIIB it was above 5000 nM.

On to `CN(C)C(=O)c1ccc(-c2cc(-c3ccnc(CNC(=O)c4ccc(N)cc4)c3)cnc2N)nc1` [Example 188, 2′-amino-2″-((4-aminobenzamido)methyl)-N,N-dimethyl-[2,3′:5′,4″-terpyridine]-5-carboxamide], for which the results for the IC50 (in experiment [1]; at GST tagged PIP4KtypeIIA; at GST tagged PIP4KtypeIIB) were 1000 to 2500 nM, above 5000 nM and 1000 to 2500 nM, respectively.

Consider `CN(C)C(=O)c1ccc(-c2cc(-c3ccnc(CNC(=O)c4cccc(NC(=O)OC(C)(C)C)c4)c3)cnc2N)nc1` [Example 190, tert-butyl (3-(((2′-amino-5-(dimethylcarbamoyl)-[2,3′:5′,4″-terpyridin]-2″-yl)methyl)carbamoyl)phenyl)carbamate], for which the IC50 is 2500 to 5000 nM in experiment [1], above 5000 nM against GST tagged PIP4KtypeIIA and above 5000 nM on GST tagged PIP4KtypeIIB.

As to `CN(C)C(=O)c1ccc(-c2cc(-c3ccnc(CNC(=O)c4cccc(N)c4)c3)cnc2N)nc1` [Example 191, 2′-amino-2″-((3-aminobenzamido)methyl)-N,N-dimethyl-[2,3′:5′,4″-terpyridine]-5-carboxamide], the figures for the concentration for half-maximal inhibition (IC50) (in experiment [1]; on GST tagged PIP4KtypeIIA; at GST tagged PIP4KtypeIIB) were 1000 to 2500 nM, above 5000 nM and 1000 to 2500 nM, respectively.

On to `CN(C)C(=O)c1ccc(-c2cc(-c3ccnc(CNC(=O)CCc4cccc(NC(=O)OC(C)(C)C)c4)c3)cnc2N)nc1` [Example 193, tert-butyl (3-(3-(((2′-amino-5-(dimethylcarbamoyl)-[2,3′:5′,4″-terpyridin]-2″-yl)methyl)amino)-3-oxopropyl)phenyl)carbamate], for which the IC50 in experiment [1] is 1000 to 2500 nM; against GST tagged PIP4KtypeIIA, above 5000 nM; at GST tagged PIP4KtypeIIB, 2500 to 5000 nM.

Turning to `CN(C)C(=O)c1ccc(-c2cc(-c3ccnc(CNC(=O)CCc4cccc(N)c4)c3)cnc2N)nc1` [Example 194, 2′-amino-2″-((3-(3-aminophenyl)propanamido)methyl)-N,N-dimethyl-[2,3′:5′,4″-terpyridine]-5-carboxamide], the IC50 in experiment [1] is 1000 to 2500 nM; against GST tagged PIP4KtypeIIA it was above 5000 nM; at GST tagged PIP4KtypeIIB, 2500 to 5000 nM.

Consider `CN(C)C/C=C/C(=O)Nc1cccc(CCC(=O)NCc2cc(-c3cnc(N)c(-c4ccc(C(=O)N(C)C)cn4)c3)ccn2)c1` [Example 195, (E)-2′-amino-2″-((3-(3-(4-(dimethylamino)but-2-enamido)phenyl)propanamido)methyl)-N,N-dimethyl-[2,3′:5′,4″-terpyridine]-5-carboxamide], for which the IC50 in experiment [1] is below 5000 nM; at GST tagged PIP4KtypeIIA it was above 5000 nM; at GST tagged PIP4KtypeIIB, 2500 to 5000 nM.

`CN(C)C(=O)c1ccc(-c2cc(-c3ccnc4nc[nH]c34)cnc2N)nc1` [Example 213, 2′-amino-5′-(1H-imidazo[4,5-b]pyridin-7-yl)-N,N-dimethyl-[2,3′-bipyridine]-5-carboxamide]: the results for the IC50 (in experiment [1]; against GST tagged PIP4KtypeIIA; on GST tagged PIP4KtypeIIB) were 100 to 1000 nM, 2500 to 5000 nM and 1000 to 2500 nM, respectively.
